Kb data for 10 molecules are collected here from patent US7288543B2, “Opioid receptor antagonists” (Eli Lilly and Company, priority 2004, dated 2007).

Common to all, as to type: biochemical
Assay [1] concerns the target T1, cloned human mu opioid receptor (Homo sapiens, UniProt P35372).
T1 construct: expressed in transfected cells
Kind of assay: GTP-γ-S binding assay (SPA), antagonist mode, mu. The note with it: functional antagonist potency; membranes with cloned human mu receptor; agonist DAMGO 1 micromolar; Cheng-Prusoff. The procedure:
(§1) The functional antagonist potency (Kb) of the sample compounds was determined using the GTPγS binding assay. GTPgS—based functional assays provide an in vitro measure of the activity of opioid agonists and antagonists. Opioid reference compounds or test compound are incubated with membrane homogenate from cells expressing the cloned human mu, kappa or delta opioid receptor and radiolabeled [35S]GTPgS. If the compound activates the opioid receptor, an increase in the binding of radiolabeled GTPgS is observed. […] These tests provide an in vitro measurement of the activity of the compound at human opioid receptors.
(§2) An SPA-based GTP-γ-S assay format was developed based on previous opioid (Emmerson et al., J. Pharm Exp Ther 278,1121,1996; Horng et al., Society for Neuroscience Abstracts, 434.6, 2000) and muscarinic (DeLapp et al., JPET 289, 946, 1999) assay formats. Membranes were resuspended in 20 mM HEPES, 100 mM NaCl, 5 mM MgCl2, 1 mM DTT, and 1 mM EDTA. Fifty (50) […] of GTP-γ-[35S], compound, membrane suspension (20 microgram/well), and wheat germ agglutinin coated SPA beads (1 mg/well) were added to clear bottom 96 well assay plates. GDP ([…]) was added to the membrane solution prior to addition to the assay plates. Plates were sealed and incubated for four hours at room temperature then placed in a refrigerator overnight to allow the beads to settle. Signal stability at 4° C. was determined to be >60 hours. Plates were warmed to room temperature and counted in a Wallac Microbeta scintillation counter. For antagonist assays, specific agonists were added at the following concentrations: (MOR) DAMGO 1 micromolar, (DOR) DPDPE 30 nM, (KOR) U69593 300 nM. Kb's were determined by Cheng-Prusoff equation (see Cheng and Prusoff, Biochem. Pharmacol. 22, 3099, 1973).
A general note: GTPγS resists hydrolysis and so accumulates on activated G proteins.

In assay [2] the target is T2, cloned human kappa opioid receptor (Homo sapiens, UniProt P41145).
T2 construct: expressed in transfected cells
T2 sequence (P41145 whole entry): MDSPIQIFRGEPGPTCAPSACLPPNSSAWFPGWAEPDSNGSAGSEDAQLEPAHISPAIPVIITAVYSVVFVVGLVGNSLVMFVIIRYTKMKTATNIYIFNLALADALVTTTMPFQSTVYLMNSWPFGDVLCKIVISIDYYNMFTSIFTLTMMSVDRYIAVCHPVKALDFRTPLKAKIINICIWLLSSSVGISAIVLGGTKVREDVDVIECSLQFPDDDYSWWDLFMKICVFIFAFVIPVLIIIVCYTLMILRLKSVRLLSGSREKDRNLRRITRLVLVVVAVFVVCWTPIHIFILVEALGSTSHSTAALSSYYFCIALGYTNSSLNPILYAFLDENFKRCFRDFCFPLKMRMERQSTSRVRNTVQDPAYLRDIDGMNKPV
In words: GTP-γ-S binding assay (SPA), antagonist mode, kappa. The conditions noted are these: functional antagonist potency; membranes with cloned human kappa receptor; agonist U69593 300 nM; Cheng-Prusoff. How it is done: as §1, §2

For assay [3], the target named is T3, cloned human delta opioid receptor (Homo sapiens, UniProt P41143).
T3 construct: expressed in transfected cells
T3 sequence (P41143 whole entry): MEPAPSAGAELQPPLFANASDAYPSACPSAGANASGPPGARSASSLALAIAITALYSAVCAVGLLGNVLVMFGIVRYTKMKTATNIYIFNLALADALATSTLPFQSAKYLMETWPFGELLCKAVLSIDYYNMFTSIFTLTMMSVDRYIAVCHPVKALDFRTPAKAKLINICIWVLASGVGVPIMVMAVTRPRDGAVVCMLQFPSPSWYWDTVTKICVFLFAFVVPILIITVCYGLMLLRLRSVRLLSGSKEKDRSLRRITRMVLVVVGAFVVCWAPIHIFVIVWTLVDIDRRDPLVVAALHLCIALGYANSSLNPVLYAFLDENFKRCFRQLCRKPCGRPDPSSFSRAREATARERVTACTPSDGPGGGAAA
Kind of assay: GTP-γ-S binding assay (SPA), antagonist mode, delta. The note with it: functional antagonist potency; membranes with cloned human delta receptor; agonist DPDPE 30 nM; Cheng-Prusoff. The procedure: as §1, §2

T1 sequence (P35372 whole entry): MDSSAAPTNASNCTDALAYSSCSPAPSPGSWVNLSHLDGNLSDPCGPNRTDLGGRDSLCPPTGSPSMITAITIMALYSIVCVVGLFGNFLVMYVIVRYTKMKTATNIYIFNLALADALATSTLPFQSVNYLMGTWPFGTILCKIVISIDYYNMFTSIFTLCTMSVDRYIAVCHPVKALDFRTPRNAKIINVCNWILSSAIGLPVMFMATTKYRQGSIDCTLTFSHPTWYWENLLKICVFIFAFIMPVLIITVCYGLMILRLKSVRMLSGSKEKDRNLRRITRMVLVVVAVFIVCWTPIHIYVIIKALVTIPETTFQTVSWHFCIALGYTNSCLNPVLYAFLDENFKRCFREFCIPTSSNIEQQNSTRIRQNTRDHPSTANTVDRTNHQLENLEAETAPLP

Usually Kb stands for the equilibrium dissociation constant of an antagonist, usually derived from a functional assay. Lower therefore signals higher antagonist affinity. Regarding `CC(C)CCNCc1ccc2c(c1)CCc1cc(C(N)=O)ccc1O2` [Example 1, 8-[(3-Methyl-butylamino)-methyl]-10,11-dihydro-dibenzo[b,f]oxepine-2-carboxilic acid amide], the results for the Kb in assay [1], in assay [2] and in assay [3] were 1.2 nM, 6.1 nM and 11 nM, respectively.

On to `CC(C)CNCc1ccc2c(c1)CCc1cc(C(N)=O)ccc1O2` [Example 2, 8-(Isobutylamino-methyl)-10,11-dihydro-dibenzo[b,f]oxepine-2-carboxylic acid amide], for which the Kb came out at 12 nM in assay [1] and 29.8 nM in assay [2].

As to `CC(C)CCCNCc1ccc2c(c1)CCc1cc(C(N)=O)ccc1O2` [Example 3, 8-[(4-Methyl-pentylamino)-methyl]-10,11-dihydro-dibenzo[b,f]oxepine-2-carboxylic acid amide], the values for the Kb in assay [1], in assay [2] and in assay [3] were 0.8 nM, 6.5 nM and 7.4 nM, respectively.

`NC(=O)c1ccc2c(c1)CCc1cc(CNCCc3cccs3)ccc1O2` [Example 4, 8-[(2-Thiophen-2-yl-ethylamino)-methyl]-10,11-dihydro-dibenzo[b,f]oxepine-2-carboxylic acid amide]: the results for the Kb in assay [1], in assay [2] and in assay [3] were 0.9 nM, 12.6 nM and 7.1 nM, respectively.

Consider `CCCCCNCc1ccc2c(c1)CCc1cc(C(N)=O)ccc1O2` [Example 5, 8-Pentylaminomethyl-10,11-dihydro-dibenzo[b,f]oxepine-2-carboxylic acid amide], for which the antagonist dissociation constant (Kb) in assay [1] was determined as 1.7 nM; in assay [2] it was 4.9 nM.

With `CCCCCCNCc1ccc2c(c1)CCc1cc(C(N)=O)ccc1O2` [Example 6, 8-Hexylaminomethyl-10,11-dihydro-dibenzo[b,f]oxepine-2-carboxylic acid amide], the Kb in assay [1] was 0.7 nM; in assay [2] it was 4.4 nM; in assay [3] it was 10.3 nM.

As to `NC(=O)c1ccc2c(c1)CCc1cc(CNCCC3CCOCC3)ccc1O2` [Example 12, 8-{[2-(Tetrahydro-pyran-4-yl)-ethylamino]-methyl}-10,11-dihydro-dibenzo[b,f]oxepine-2-carboxylic acid amide], the Kb in assay [1] was 0.7 nM; in assay [2], 2.2 nM; in assay [3] it was 2.1 nM.

In the case of `CC(C)(C)CCNCc1ccc2c(c1)CCc1cc(C(N)=O)ccc1O2` [Example 13, 8-[(3,3-Dimethyl-butylamino)-methyl]-10,11-dihydro-dibenzo[b,f]oxepine-2-carboxylic acid amide], the Kb in assay [1] came to 4 nM; in assay [2] it was 12.1 nM; in assay [3], 14.4 nM.

With `NC(=O)c1ccc2c(c1)CCc1cc(CNCCC3CCCC3)ccc1O2` [Example 14, 8-[(2-Cyclopentyl-ethylamino)-methyl]-10,11-dihydro-dibenzo[b,f]oxepine-2-carboxylic acid amide], the Kb in assay [1] worked out at 0.6 nM; in assay [2] it was 8.6 nM; in assay [3], 7 nM.

Regarding `CCOCCCNCc1ccc2c(c1)CCc1cc(C(N)=O)ccc1O2` [Example 17, 8-[(3-Ethoxy-propylamino)-methyl]-10,11-dihydro-dibenzo[b,f]oxepine-2-carboxylic acid amide], the results for the Kb in assay [1], in assay [2] and in assay [3] were 2.1 nM, 25.7 nM and 26.7 nM, respectively.
